Measurements taken from publication PMC12797170, “Potent Competitive Inhibitors of Ecto-5′-nucleotidase (CD73) based on 6‑(Het)aryl-7-deazapurine Ribonucleoside 5′‑O‑Bisphosphonates” (ACS Pharmacology & Translational Science, 2025).
Values after ≈ are worked out from the molar mass of the structure shown.

Legend:
[1] = in vitro; details: mouse, plasma
[2] = system: HeLa S3; test: In vitro cytotoxic activity; assay type: cell-based; details: Homo sapiens
Method: (§1) All the compounds were also tested for their in vitro cytotoxic activity on a small panel of four cancer cell lines (CCRF-CEM, HepG2, HeLa S3, HL-60) and nonmalignant human dermal fibroblasts (NHDF).

[3] = system: CCRF-CEM; test: In vitro cytotoxic activity; assay type: cell-based; details: Homo sapiens
Method: as §1

[4] = system: HepG2; test: In vitro cytotoxic activity; assay type: cell-based; details: Homo sapiens
Method: as §1

[5] = system: nonmalignant human dermal fibroblasts (NHDF); test: In vitro cytotoxic activity; assay type: cell-based
Method: as §1

[6] = system: HL-60; test: In vitro cytotoxic activity; assay type: cell-based; details: Homo sapiens
Method: as §1

[7] = Plasma protein binding, mouse plasma; assay type: in vitro ADME; details: mouse, plasma, mouse plasma protein binding; read-out: PPB (m) (converted)
[8] = Kinetic solubility in PBS; assay type: physicochemical; details: phosphate-buffered saline, pH 7.4, aqueous buffer, kinetic from dmso stock
Procedure, shortened: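 DMSO stocks diluted into PBS pH 7.4 to 100 μM and shaken 2 h at room temperature in duplicate, then filtered by centrifugation. Filtrates diluted 1:99 in 50% acetonitrile. Quantified by Echo-MS against calibration standards spanning 0.05–4 μM.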

[9] = target: T1, recombinant human CD73 (hCD73) (Homo sapiens, UniProt P21589); test: CD73 activity assay on recombinant human CD73; assay type: biochemical; details: ΔGexp = RT ln Ki
T1 sequence (P21589 27-574): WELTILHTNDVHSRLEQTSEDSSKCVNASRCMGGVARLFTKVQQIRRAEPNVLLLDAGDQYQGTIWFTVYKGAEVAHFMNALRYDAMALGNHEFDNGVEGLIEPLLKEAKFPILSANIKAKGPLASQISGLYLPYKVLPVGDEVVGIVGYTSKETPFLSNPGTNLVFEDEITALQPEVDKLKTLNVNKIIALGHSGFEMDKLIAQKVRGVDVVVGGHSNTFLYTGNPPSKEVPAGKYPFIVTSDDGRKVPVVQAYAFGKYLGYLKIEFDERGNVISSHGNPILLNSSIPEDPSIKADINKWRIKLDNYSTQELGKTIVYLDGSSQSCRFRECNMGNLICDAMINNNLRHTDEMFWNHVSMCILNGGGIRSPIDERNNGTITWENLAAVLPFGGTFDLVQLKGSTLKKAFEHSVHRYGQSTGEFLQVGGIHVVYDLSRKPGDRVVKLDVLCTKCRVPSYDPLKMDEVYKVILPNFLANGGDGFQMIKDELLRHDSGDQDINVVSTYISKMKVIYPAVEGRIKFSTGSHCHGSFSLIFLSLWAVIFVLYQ

[10] = Microsomal stability assay, mouse liver microsomes; assay type: in vitro ADME; details: for microsomal CLint at 10 µM: pooled liver microsomes, pH 7.4, read-out: Mics (m) CLint; for Mics (m) comp remaining 60 min: 10 μM
[11] = in vitro; details: human, plasma
[12] = Microsomal stability assay, human liver microsomes; assay type: in vitro ADME; details: for Mics (hu) comp remaining 60 min: 10 μM; for microsomal CLint at 10 µM: pooled liver microsomes, pH 7.4, read-out: Mics (hu) CLint
[13] = Plasma protein binding, equilibrium dialysis, human plasma; assay type: in vitro ADME; details: undiluted plasma
[14] = human plasma protein binding, read-out: PPB (hu) (converted)
[15] = Tables 1 and 3, human plasma as printed in footnote, read-out: fup, fraction unbound in human plasma

Row | SMILES | half-life at 10 µM [1] | fraction unbound at 4 h, 100 µM [7] | solubility at 2 h [8] | dG_exp, experimental binding free energy [9] | microsomal CLint at 10 µM [10] | half-life at 10 µM [11] | Mics (hu) comp remaining 60 min [12] | microsomal CLint at 10 µM [12] | fraction unbound at 4 h, 100 µM [13, 14] | Mics (m) comp remaining 60 min [10] | fraction unbound at 4 h, 100 µM [13, 15] | IC50 [2] | IC50 [3] | IC50 [4] | IC50 [5] | IC50 [6]
1 | O=P(O)(O)CP(=O)(O)OC[C@H]1O[C@@H](n2ccc3c(-c4cc5ccccc5o4)nc(F)nc32)[C@H](O)[C@@H]1O [14D.8] | > 2 h | 0.286 | 76 µM (≈ 41.3 µg/mL) | –14.3 kcal/mol | < 1 µL/min/mg | > 2 h | 107% | < 1 µL/min/mg | 0.008 |  |  | > 10 µM | > 10 µM | > 10 µM | > 10 µM | > 10 µM
2 | COc1nc(-c2ccc3ccccc3c2)c2ccn([C@@H]3O[C@H](COP(=O)(O)CP(=O)(O)O)[C@@H](O)[C@H]3O)c2n1 [21F.7, [(5-{[2-Methoxy-4-(naphthalen-2-yl)-7H-pyrrolo[2,3-d]pyrimidin-7-yl]-β-D-ribofuranosyl}oxy)phosphonomethyl]phosphonic Acid] | > 2 h | 0.136 | 79 µM (≈ 44.7 µg/mL) | –13.4 kcal/mol | < 1 µL/min/mg | > 2 h | 104% | < 1 µL/min/mg | ≤ 0.01 |  | 0.14 | > 10 µM | > 10 µM | > 10 µM | > 10 µM | > 10 µM
3 | CNc1nc(-c2ccc3ccccc3c2)c2ccn([C@@H]3O[C@H](COP(=O)(O)CP(=O)(O)O)[C@@H](O)[C@H]3O)c2n1 [22G.7, [(5-{[2-(N-Methylamino)-4-(naphthalen-2-yl)-7H-pyrrolo[2,3-d]pyrimidin-7-yl]-β-D-ribofuranosyl}oxy)phosphonomethyl]phosphonic Acid] | > 2 h | 0.112 | 84 µM (≈ 47.4 µg/mL) | –12.7 kcal/mol | 3 µL/min/mg | > 2 h | 106% | < 1 µL/min/mg | ≤ 0.01 |  | 0.11 | > 10 µM | > 10 µM | > 10 µM | > 10 µM | 8.1 µM

Second part, led by results:

Row | half-life at 10 µM [1] | fraction unbound at 4 h, 100 µM [7] | solubility at 2 h [8] | dG_exp, experimental binding free energy [9] | microsomal CLint at 10 µM [10] | half-life at 10 µM [11] | Mics (hu) comp remaining 60 min [12] | microsomal CLint at 10 µM [12] | fraction unbound at 4 h, 100 µM [13, 14] | Mics (m) comp remaining 60 min [10] | fraction unbound at 4 h, 100 µM [13, 15] | SMILES | IC50 [2] | IC50 [3] | IC50 [4] | IC50 [5] | IC50 [6]
4 | > 2 h | 0.816 | 89 µM (≈ 43.5 µg/mL) | –13.2 kcal/mol | 1 µL/min/mg | > 2 h | 100% | < 1 µL/min/mg | 0.069 | 96% |  | Cc1nc(-c2ccco2)c2ccn([C@@H]3O[C@H](COP(=O)(O)CP(=O)(O)O)[C@@H](O)[C@H]3O)c2n1 [18E.1] | > 10 µM | > 10 µM | > 10 µM | > 10 µM | > 10 µM
5 | > 2 h | 0.323 | 80 µM (≈ 44.3 µg/mL) | –14.4 kcal/mol | < 1 µL/min/mg | > 2 h | 108% | < 1 µL/min/mg | 0.022 | 106% |  | Cc1nc(-c2cccc3c2CCCC3)c2ccn([C@@H]3O[C@H](COP(=O)(O)CP(=O)(O)O)[C@@H](O)[C@H]3O)c2n1 [18E.12] | > 10 µM | > 10 µM | > 10 µM | > 10 µM | > 10 µM
6 | > 2 h | 0.509 | 80 µM (≈ 43.2 µg/mL) | –11.8 kcal/mol | 6 µL/min/mg | > 2 h | 102% | < 1 µL/min/mg | 0.084 | 88% |  | O=P(O)(O)CP(=O)(O)OC[C@H]1O[C@@H](n2cnc3c(-c4cccc5c4CCCC5)ncnc32)[C@H](O)[C@@H]1O [31A.12] | > 10 µM | > 10 µM | > 10 µM | > 10 µM | > 10 µM
